From PMC10023970 (The Journal of Biological Chemistry, 2023)
Where two headings read alike, the source gives them in different places.

Columns and labels:
[1] = system: RD; assay: cells; conditions: Homo sapiens, RD
[2] = system: C2C12; assay: cells; conditions: Mus musculus
[3] = system: MCF 10A; assay: cells; conditions: Homo sapiens, MCF-10A, read-out: EC50 for cell killing (μM) / SecinH3
[4] = system: OSA; assay: cells
[5] = system: NIH3T3; assay: cells; conditions: Mus musculus
[6] = system: HeLa; assay: cells; conditions: Homo sapiens, HeLa, read-out: EC50 for cell killing (μM) / SecinH3
[7] = system: SMS-CTR; assay: cells
[8] = system: U2OS; assay: cells; conditions: Homo sapiens, U2OS
[9] = molecular target: T1, ASAP1PZA (Mus musculus, UniProt Q9QWY8); assay: thermal shift, soluble fraction by SDS-PAGE; assay type: binding; conditions: 10 μM protein, no membrane
T1 sequence (Q9QWY8 325-724 limits assumed): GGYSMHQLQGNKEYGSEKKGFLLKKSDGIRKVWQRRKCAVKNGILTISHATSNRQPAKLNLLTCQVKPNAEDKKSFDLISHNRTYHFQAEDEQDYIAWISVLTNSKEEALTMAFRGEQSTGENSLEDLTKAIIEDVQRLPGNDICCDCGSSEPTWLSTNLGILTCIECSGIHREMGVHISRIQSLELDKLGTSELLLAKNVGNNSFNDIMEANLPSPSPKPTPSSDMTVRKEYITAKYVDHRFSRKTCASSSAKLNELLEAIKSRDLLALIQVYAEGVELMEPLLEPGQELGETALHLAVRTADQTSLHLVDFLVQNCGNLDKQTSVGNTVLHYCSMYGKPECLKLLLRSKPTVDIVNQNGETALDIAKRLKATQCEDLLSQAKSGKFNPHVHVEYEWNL

[10] = molecular target: myrArf1; conditions: NAV-2729 partitioned in LUVs; PBS, room temperature; not myristoylated
[11] = molecular target: T1, ASAP1PZA; assay: GAP assay, conversion of Arf1-GTP to Arf1-GDP; assay type: biochemical
[12] = molecular target: ASAP1 (full-length) (Mus musculus, UniProt Q9QWY8); assay: GAP assay, conversion of Arf1-GTP to Arf1-GDP; assay type: biochemical
Chain of ASAP1 (full-length) (Q9QWY8 whole entry): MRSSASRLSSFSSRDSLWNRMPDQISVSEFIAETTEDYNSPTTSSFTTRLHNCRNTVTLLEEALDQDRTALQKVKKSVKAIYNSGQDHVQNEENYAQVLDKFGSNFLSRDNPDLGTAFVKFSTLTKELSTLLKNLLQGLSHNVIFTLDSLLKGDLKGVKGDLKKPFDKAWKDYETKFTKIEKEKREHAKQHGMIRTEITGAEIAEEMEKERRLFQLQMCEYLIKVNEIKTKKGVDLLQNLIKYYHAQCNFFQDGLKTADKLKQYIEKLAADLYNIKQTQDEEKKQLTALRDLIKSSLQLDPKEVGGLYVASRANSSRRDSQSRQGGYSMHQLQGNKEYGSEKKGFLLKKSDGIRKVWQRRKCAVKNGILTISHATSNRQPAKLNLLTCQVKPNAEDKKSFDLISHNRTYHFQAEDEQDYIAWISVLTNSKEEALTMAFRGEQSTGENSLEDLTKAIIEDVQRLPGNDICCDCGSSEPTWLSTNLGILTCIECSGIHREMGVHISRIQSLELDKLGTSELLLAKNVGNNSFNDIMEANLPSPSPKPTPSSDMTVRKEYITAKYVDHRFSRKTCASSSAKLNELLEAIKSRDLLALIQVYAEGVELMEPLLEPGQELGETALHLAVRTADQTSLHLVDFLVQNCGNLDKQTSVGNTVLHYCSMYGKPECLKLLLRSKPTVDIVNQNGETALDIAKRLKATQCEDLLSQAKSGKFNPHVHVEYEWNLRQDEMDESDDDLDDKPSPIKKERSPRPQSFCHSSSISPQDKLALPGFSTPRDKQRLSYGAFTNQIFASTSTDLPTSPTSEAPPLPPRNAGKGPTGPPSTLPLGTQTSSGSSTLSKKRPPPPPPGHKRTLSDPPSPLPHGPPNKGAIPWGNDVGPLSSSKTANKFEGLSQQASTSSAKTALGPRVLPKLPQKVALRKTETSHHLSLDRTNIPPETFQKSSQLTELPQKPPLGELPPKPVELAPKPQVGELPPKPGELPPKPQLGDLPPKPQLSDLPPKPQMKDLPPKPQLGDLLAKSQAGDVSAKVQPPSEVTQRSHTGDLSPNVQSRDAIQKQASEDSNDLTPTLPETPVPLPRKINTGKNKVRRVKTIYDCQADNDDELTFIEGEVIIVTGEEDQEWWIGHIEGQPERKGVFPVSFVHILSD

[13] = molecular target: Brag2Sec7-PH (Homo sapiens, UniProt Q6DN90); assay: GEF assay, […]GTPgammaS binding to Arf1, filter trapping; assay type: biochemical
Chain of Brag2Sec7-PH (Q6DN90 512-885): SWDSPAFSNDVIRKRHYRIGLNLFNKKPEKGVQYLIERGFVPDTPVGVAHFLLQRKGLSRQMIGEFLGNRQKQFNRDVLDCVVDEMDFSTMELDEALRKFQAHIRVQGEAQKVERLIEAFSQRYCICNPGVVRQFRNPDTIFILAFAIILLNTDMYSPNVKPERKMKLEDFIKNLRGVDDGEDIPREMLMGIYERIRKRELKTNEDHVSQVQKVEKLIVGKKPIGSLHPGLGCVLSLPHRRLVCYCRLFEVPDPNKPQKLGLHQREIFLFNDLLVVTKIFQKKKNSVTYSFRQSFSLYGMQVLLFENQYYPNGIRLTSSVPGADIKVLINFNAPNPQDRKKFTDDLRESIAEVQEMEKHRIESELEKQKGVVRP

[14] = read-out: EC50 for cell killing (μM) / SecinH3
[15] = read-out: EC50 for cell killing (μM) / Bragsin2
[16] = read-out: EC50 for cell killing (μM) / NAV-2729

`C[C@H]1CCC/C=C/[C@@H]2C[C@H](O)C[C@H]2[C@H](O)/C=C/C(=O)O1` [Brefeldin A] was tested. Which EC50 ([1]; read-out: EC50 for cell killing (μM) / Brefeldin A) did it give?
Its EC50 is 0.006 ± 0.002 µM.

What does the source list for `COc1nc(-c2ccc3c(c2)OCO3)n(-c2ccc(NC(=O)CSc3ccccc3)cc2)n1` [SecinH3]?
EC50 ([2]; C2C12, read-out: EC50 for cell killing (μM) / SecinH3): > 50 µM; EC50 [3]: > 50 µM; EC50 [4, 14]: > 50 µM; EC50 ([5]; NIH3T3, read-out: EC50 for cell killing (μM) / SecinH3): > 50 µM; EC50 [6]: > 50 µM; EC50 [1, 14]: > 50 µM; EC50 [7, 14]: > 50 µM; EC50 [8, 14]: > 50 µM

`CCCCCCCC(=O)OC[C@H](COP(=O)(O)O[C@@H]1[C@H](O)[C@H](O)[C@@H](OP(=O)(O)O)[C@H](OP(=O)(O)O)[C@H]1O)OC(=O)CCCCCCC` [diC8-PIP2] was tested. Which “thermal shift at 200 μM” value [9] did it give?
Its value is ~ 6 degree.

Which EC50 [4, 15] does the source give for `COc1ccc2oc(C(F)(F)F)cc(=O)c2c1[N+](=O)[O-]` [Bragsin2] here?
Its EC50 is over 50 µM.

And the EC50 [8, 15]?
Its EC50 is over 50 µM.

For `O=c1cc(-c2ccc([N+](=O)[O-])cc2)[nH]c2c(-c3ccc(Cl)cc3)c(Cc3ccccc3)nn12` [NAV-2729], which Kd [10] is on record?
The Kd was over 50 µM.

What about the IC50 [11] of the same compound?
Its IC50 is 4.6 ± 0.9 µM.

What about the EC50 ([2]; C2C12, read-out: EC50 for cell killing (μM) / NAV-2729) of the same compound?
The EC50 was 11 µM.

What about the EC50 ([5]; NIH3T3, read-out: EC50 for cell killing (μM) / NAV-2729) of the same compound?
The EC50 was 11 µM.

What about the EC50 [1, 16] of the same compound?
The EC50 was 8 µM.

What about the EC50 [7, 16] of the same compound?
The EC50 was 11 µM.

What about the IC50 [12] of the same compound?
Its IC50 is 12.2 ± 1.4 µM.

And the IC50 [13]?
Its IC50 is 7.1 ± 2.5 µM.
